pIC50, pKi: −log10 of the molar value. Read-outs that look alike come from different tables or passages of the source.
Key:
[1] = Drug stability in human liver microsomes; assay type: in vitro ADME
Source text: Testing of Drug Stability in Human Liver Microsomes
This assay involves exposing a test compound to vesicles which contain the contents of digestive organelles (endoplasmic reticula) derived from human liver cells. The tests were done by Microconstants Inc., San Diego, Calif., using methods substantially as described in J. R. Hill, “In vitro drug metabolism using liver microsomes,” Curr. Protocols Pharmacol., Chapter 7, Unit 7.8 (2004), John Wiley & Sons, Inc.
The results, in Table 1 below, indicate the percentage decomposition of the test compound after 1 hour. […] Although degraded as rapidly, or even more rapidly than DM, other compounds remain of interest due to their receptor binding activities, as detailed further below.

sigma-1 receptors = sigma-1 receptors (Homo sapiens (Human), UniProt Q99720); test: biochemical; assay type: binding
Chain of sigma-1 receptors (Q99720 whole entry, looked up): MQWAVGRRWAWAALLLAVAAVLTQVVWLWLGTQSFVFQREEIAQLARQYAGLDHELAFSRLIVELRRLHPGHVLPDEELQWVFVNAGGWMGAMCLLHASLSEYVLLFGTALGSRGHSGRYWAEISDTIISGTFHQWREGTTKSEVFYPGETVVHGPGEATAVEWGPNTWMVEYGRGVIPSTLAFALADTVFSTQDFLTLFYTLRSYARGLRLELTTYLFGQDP

[2] = Caco-2 bidirectional permeability assay; assay type: in vitro ADME; set-up: Papp A→B / Papp B→A: dose or concentration left out as unconfirmed; conditions: human
Source text: The human colon carcinoma cell Caco-2 provides a well-established and effective model for predicting intestinal absorption of chemicals, and in determining the mechanism of transport. […] The method is used to assess the bidirectional permeability of a test compound, from the apical to the basolateral side (A-B) of a Caco-2 cell monolayer membrane, and vice versa (B-A). R. B. van Breemen, Y. Li, “Caco-2 cell permeability assays to measure drug absorption,” Expert Opin. Drug Metab. […] The transport rate of a compound across the monolayer is highly predictive of the in vivo absorption of the compound across the gut wall, and the Caco-2 permeability assay is an FDA-recommended method for evaluating the absorption of orally-administered drugs. Results of this assay for selected reference drugs and compounds of the invention are set out in Table 3.

human recombinant hERG = human recombinant hERG (Homo sapiens (Human), UniProt Q12809); test: hERG radioligand (3H-astemizole) binding assay
Chain of human recombinant hERG (Q12809 whole entry, looked up): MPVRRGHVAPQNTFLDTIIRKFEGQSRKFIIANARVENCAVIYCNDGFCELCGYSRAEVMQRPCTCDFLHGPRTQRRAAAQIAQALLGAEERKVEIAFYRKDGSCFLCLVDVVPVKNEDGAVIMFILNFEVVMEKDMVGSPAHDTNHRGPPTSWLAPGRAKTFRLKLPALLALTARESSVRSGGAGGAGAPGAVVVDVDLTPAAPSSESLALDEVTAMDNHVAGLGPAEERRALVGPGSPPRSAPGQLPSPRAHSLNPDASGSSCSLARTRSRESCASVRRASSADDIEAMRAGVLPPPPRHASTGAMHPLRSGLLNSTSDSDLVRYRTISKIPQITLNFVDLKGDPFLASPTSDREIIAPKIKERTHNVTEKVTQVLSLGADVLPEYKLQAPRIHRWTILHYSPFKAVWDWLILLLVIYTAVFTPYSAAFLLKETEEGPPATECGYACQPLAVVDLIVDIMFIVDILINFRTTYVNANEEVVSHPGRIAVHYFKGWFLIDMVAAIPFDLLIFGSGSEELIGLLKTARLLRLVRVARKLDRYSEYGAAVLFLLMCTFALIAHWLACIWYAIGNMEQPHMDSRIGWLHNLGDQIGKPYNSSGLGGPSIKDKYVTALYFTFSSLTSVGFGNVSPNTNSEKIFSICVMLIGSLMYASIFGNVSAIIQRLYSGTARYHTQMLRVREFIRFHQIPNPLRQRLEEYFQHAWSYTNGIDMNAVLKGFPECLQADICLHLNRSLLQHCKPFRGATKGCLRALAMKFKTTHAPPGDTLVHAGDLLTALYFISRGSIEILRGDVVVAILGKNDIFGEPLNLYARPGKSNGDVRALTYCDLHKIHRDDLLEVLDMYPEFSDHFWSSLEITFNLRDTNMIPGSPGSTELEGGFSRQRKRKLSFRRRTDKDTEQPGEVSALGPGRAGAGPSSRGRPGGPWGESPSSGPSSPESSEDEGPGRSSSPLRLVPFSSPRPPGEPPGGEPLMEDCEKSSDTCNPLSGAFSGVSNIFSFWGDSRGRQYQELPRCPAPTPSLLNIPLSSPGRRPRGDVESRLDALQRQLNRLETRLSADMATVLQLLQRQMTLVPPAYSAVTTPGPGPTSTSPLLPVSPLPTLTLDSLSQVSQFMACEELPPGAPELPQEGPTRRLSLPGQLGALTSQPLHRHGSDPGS
Source text: Cardiac Potassium Channel (hERG) Assays
The human ether-a-go-go related gene (hERG) encodes the inward-rectifying voltage-gated potassium channel (IKr) in the heart, which is involved in cardiac repolarization. Inhibition of the hERG current causes QT interval prolongation, potentially resulting in ventricular tachyarrhythmia, and the detection of this potential liability is desirable at an early stage of drug discovery.

[3] = molecular target: phencyclidine site of NMDA-type glutamate receptors; test: NMDA receptor (phencyclidine site) radioligand binding inhibition
Protocol: In vitro binding assays for the phencyclidine site of NMDA-type glutamate receptors, and for sigma-1 receptors, both of which are known to be bound by DM, were conducted by Sekisui Medical Co., Ltd. of Ibaraki, Japan. In these assays, DM acts as an antagonist at NMDA receptors, which are excitatory in their effects, thereby allowing DM to reduce, calm, and modulate unwanted neuronal activity in neuronal networks that are activated by glutamate agonist activity at NMDA receptors. DM acts as an agonist at sigma-1 receptors, which are inhibitory receptors, thereby allowing DM to reduce unwanted neuronal activity by a second mechanism. Assays for sigma-1 and NMDA (phencyclidine site) receptor affinities, based on inhibition of radioligand binding, provided the results shown in Table 2 below.

[4] = molecular target: human serotonin transporter (Homo sapiens (Human), UniProt P31645); test: biochemical; conditions: 3H-imipramine binding, HEK-293 membranes; for pIC50: read-out: SERT IC50; for pKi: read-out: SERT Ki
Source text: Serotonin Transporter (SERT) Assay
The serotonin transporter (SERT) is a monoamine transporter protein that transports serotonin from the synaptic cleft back to the presynaptic neuron (serotonin reuptake.) Serotonin modulates emotional states in humans, and inhibition of SERT activity is the basis for the SSRI class of antidepressants.

κ opioid receptor = κ opioid receptor (Homo sapiens (Human), UniProt P41145); test: biochemical; conditions: 3H-diprenorphine binding; for pIC50: read-out: Opiate κ IC50; for pKi: read-out: Opiate κ Ki
μ opioid receptor = μ opioid receptor (Homo sapiens (Human), UniProt P35372); test: μ opioid receptor radioligand (3H-diprenorphine) binding assay
[5] = cited from earlier work
[6] = inhibition of radioligand binding, read-out: Sigma-1 IC50
[7] = inhibition of radioligand binding, read-out: Sigma-1 Ki

Row | SMILES | % decomposition at 1 hour [1] [%] | half-life [1] [min] | pIC50 (sigma-1 receptors; [6]) | pKi (sigma-1 receptors; [7]) | Papp A→B at 0.1 μM ([2]; apical to basolateral) [×10⁻⁶ cm/s] | Papp B→A at 0.1 μM ([2]; basolateral to apical) [×10⁻⁶ cm/s] | Papp A→B at 1 μM ([2]; apical to basolateral) [×10⁻⁶ cm/s] | Papp B→A at 1 μM ([2]; basolateral to apical) [×10⁻⁶ cm/s] | pIC50 (human recombinant hERG) | pKi (human recombinant hERG) | pKi [3] | pIC50 (μ opioid receptor) | pKi (μ opioid receptor) | pIC50 [3] | also measured
1 | COc1ccc2c(c1)[C@]13CCCCC1C(C2)N(Cc1cccnc1)CC3 (stereo partly shown) [CNS10] | 98.4 | – | – | – | – | – | – | – | – | – | – | – | – | – | –
2 | C=CCN(C)CC[C@@]12CCCC[C@@H]1C=Cc1ccc(OC)cc12 [CNS22] | – | 36 | – | – | – | – | – | – | – | – | – | – | – | – | pIC50 (sigma-1 receptors): 7.54; pKi (sigma-1 receptors): 7.69
3 | [2H]C([2H])(Oc1ccc2c(c1)[C@]1(CCN(C)CC=C)CCCC[C@@H]1C=C2)C(F)F [CNS23-D2] | – | 32 | 7.95 | 8.11 | – | – | – | – | – | – | – | – | – | – | –
4 | [2H]C([2H])(Oc1ccc2c(c1)[C@]13CCCC[C@@H]1[C@H](C2)N(CCOC)CC3)C(F)F [CNS27-D2, (1S,9S,10S)-4-(1,1-dideuterio-2,2-difluoro-ethoxy)-17-(2-methoxyethyl)-17-azatetracyclo[7.5.3.0^1,10.0^2,7]-heptadeca-2,4,6-triene] | – | – | – | 8.80 | 10.2 | 9.76 | 11.6 | 13.1 | 4.65 | 5.32 | < 4.64 | 3.91 | 4.64 | – | pIC50 [4]: 5.57; pKi [4]: 5.80; pIC50 (κ opioid receptor): 4.54; pKi (κ opioid receptor): 4.94
5 | CN1CC[C@@]23CCCC[C@@H]2[C@@H]1Cc1ccc(OCC(F)(F)F)cc13 [CNS-222, (1S,9S,10S)-4-(2,2,2-trifluoroethoxy)-17-methyl-17-azatetracyclo[7.5.3.0^1,10.0^2,7]heptadeca-2(7),3,5-triene] | – | – | 7.30 | – | – | – | – | – | – | – | – | – | – | – | –
6 | CN1CC[C@@]23CCCC[C@@H]2[C@@H]1Cc1ccc(O)cc13 [Dextorphan (DX), reference compound] | – | – | 6.59 | 6.74 | – | – | – | – | – | – | 5.95 | – | – | 5.82 | –
7 | COc1ccc2c(c1)[C@]13CCCC[C@@H]1[C@H](C2)N(C)CC3 [Dextromethorphan (DM), 3-methoxy-17-methyl-(9α,13α,14α)-morphinan, reference compound] | 69 | 35 | – | – | 15.9 | 10.8 | 19 | 14.2 | 4.31 | 4.97 | 5.34 | 4.29 | 5.02 | 5.17 | plasma levels ([5]; fast metabolizers, 30 mg dose, four hours post ingestion): less than 5 ng/ml; plasma levels ([5]; poor metabolizers, oral dose of 30 mg, at 24 hours): above 5 ng/ml; pIC50 (sigma-1 receptors): 6.86; pKi (sigma-1 receptors): 7.02
8 | Cc1ccc2c(c1)[C@]13CCCC[C@@H]1[C@H](C2)N(C)CC3 [Dimemorphan (DIM), reference compound] | – | – | 6.28 | 6.43 | – | – | – | – | – | – | – | – | – | < 4.52 | t1/2 [1]: 22 min
9 | [2H]C([2H])(Oc1ccc2c(c1)[C@]13CCCC[C@@H]1[C@H](C2)NCC3)C(F)F [N-desmethyl CNS1-D2, (1S,9S,10S)-4-(1,1-dideuterio-2,2-difluoro-ethoxy)-17-azatetracyclo[7.5.3.0^1,10.0^2,7]heptadeca-2,4,6-triene] | 10.1 | > 240 | – | 7.15 | 9.71 | 6.33 | 10.8 | 10.1 | 4.58 | 5.24 | 5.51 | 3.85 | 4.58 | – | pIC50 [4]: 6.33; pKi [4]: 6.55; pIC50 (κ opioid receptor): 4.42; pKi (κ opioid receptor): 4.82
10 | CC(C)NCC(O)COc1cccc2ccccc12 (stereo not shown) [Propranolol, reference compound] | – | – | – | – | – | – | – | – | – | – | – | – | – | – | Papp A→B ([2]; apical to basolateral): 21.2 ×10⁻⁶ cm/s; Papp B→A ([2]; basolateral to apical): 39 ×10⁻⁶ cm/s

From patent US11535596B2 (priority 2020, dated 2022)
